# Patent US8962842B2, “2-pyridone antimicrobial compositions” (priority 2010, dated 2015)
# Like-named read-outs stand apart in the source and are kept apart here.
# Key:
# [1] = system: Acinetobacter baumannii, quinolone-resistant strains (Quotient Bioresearch catalogue); experiment: MIC against pathogens resistant against quinolones (Table 5); type: cell-based; conditions: Acinetobacter baumannii, GN54
# [2] = system: Acinetobacter baumannii (12 strains); experiment: MIC range, broader panel of Quotient Bioresearch strains (Table 4); type: cell-based; conditions: for MIC50: read-out: MIC Range Median, Acinetobacter baumannii (12 strains)
# [3] = system: Streptococcus pneumonia (5 strains); experiment: MIC range, broader panel of Quotient Bioresearch strains (Table 3); conditions: Streptococcus pneumoniae; for MIC50: read-out: MIC Range Median, Streptococcus pneumonia (5 strains)
# [4] = system: Haemophilus influenza (5 strains); experiment: MIC range, broader panel of Quotient Bioresearch strains (Table 4); type: cell-based, Haemophilus influenzae; conditions: for MIC50: 16 h, Median of the strain panel
# [5] = system: Pseudomonas aeruginosa (12 strains); experiment: as above; type: cell-based; conditions: for MIC50: read-out: MIC Range Median, Pseudomonas aeruginosa (12 strains)
# physchem = type: physicochemical; conditions: thermodynamic from solid
# Description: The solutions were incubated at room temperature for 24 hours before quantification by HPLC detection. Aqueous solubility was evaluated in simulated gastric fluid (SGF), simulated intestinal fluid (SIF) and phosphate buffer saline (PBS) pH 7.4. Aqueous solubility is expressed in Table 11 as mean solubility in μM.
# [6] = system: Burkholderia cepacia (5 strains); experiment: MIC range, broader panel of Quotient Bioresearch strains (Table 4); type: cell-based; conditions: for MIC50: read-out: MIC Range Median, Burkholderia cepacia (5 strains)
# [7] = Metabolic stability in liver microsomes +/- S9 fraction (Table 8); type: in vitro ADME; conditions: 1 μM
# Description: Metabolic stability of a select number of examples was tested in liver microsomes+/−addition of S9 fraction as described by Kuhnz, W. and Gieschen, H. (1998), Drug Metab. Dispos., 1120-1127. Test concentration was 1 μM and HPLC/MS-MS was used for detection.
# [8] = biological target: bacterial topoisomerase IV (Escherichia coli, UniProt P0AFI2+P20083); experiment: Inhibition of topoisomerases activity in vitro, Topogen protocol TG1007 (Table 7); type: biochemical
# Sequence of bacterial topoisomerase IV (P20083 whole entry): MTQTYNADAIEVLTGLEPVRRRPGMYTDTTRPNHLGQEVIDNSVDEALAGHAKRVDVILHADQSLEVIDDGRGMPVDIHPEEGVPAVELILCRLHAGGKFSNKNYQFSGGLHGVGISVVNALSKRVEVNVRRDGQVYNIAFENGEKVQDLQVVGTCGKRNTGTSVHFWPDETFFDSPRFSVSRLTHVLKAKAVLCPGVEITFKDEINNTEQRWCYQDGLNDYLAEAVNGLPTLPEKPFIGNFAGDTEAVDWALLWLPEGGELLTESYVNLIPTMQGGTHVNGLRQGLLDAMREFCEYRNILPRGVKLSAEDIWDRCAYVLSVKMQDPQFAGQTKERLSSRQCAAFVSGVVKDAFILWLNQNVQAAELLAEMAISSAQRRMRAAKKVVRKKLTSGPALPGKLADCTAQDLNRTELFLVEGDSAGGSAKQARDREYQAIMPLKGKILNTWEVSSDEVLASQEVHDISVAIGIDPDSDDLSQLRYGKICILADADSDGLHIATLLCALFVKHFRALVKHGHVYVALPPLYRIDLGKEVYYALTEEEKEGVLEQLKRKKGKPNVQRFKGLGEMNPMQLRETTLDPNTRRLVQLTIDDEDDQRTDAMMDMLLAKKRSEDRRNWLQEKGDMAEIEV
# Sequence of bacterial topoisomerase IV (P0AFI2 whole entry): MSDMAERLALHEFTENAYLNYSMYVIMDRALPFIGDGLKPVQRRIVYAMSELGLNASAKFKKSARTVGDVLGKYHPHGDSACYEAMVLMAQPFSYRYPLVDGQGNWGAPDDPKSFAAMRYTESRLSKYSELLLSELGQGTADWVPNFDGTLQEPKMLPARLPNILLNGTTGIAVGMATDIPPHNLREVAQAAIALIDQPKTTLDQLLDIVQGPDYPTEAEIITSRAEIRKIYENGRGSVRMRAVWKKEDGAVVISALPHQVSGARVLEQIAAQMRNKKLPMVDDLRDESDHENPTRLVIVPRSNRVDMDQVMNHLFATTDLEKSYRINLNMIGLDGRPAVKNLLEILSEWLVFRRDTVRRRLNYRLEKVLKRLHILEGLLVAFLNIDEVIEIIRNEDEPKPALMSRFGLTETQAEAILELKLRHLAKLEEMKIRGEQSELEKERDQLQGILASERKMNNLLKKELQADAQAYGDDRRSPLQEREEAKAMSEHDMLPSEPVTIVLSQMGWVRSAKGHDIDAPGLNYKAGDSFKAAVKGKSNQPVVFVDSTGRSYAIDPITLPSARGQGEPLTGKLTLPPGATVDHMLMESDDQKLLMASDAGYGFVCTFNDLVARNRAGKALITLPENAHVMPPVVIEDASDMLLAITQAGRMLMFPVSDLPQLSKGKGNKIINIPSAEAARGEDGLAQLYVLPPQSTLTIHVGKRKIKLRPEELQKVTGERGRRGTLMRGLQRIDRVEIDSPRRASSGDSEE
# [9] = system: Streptococcus pyogenes (4 strains); experiment: MIC range, broader panel of Quotient Bioresearch strains (Table 3); conditions: for MIC50: read-out: MIC Range Median, Streptococcus pyogenes (4 strains)
# bacterial gyrase = bacterial gyrase (Escherichia coli, UniProt P0AES4+P0AES6); experiment: Inhibition of topoisomerases activity in vitro, Topogen protocol TG1003 (Table 7); type: biochemical
# Sequence of bacterial gyrase (P0AES4 whole entry, one chain of several): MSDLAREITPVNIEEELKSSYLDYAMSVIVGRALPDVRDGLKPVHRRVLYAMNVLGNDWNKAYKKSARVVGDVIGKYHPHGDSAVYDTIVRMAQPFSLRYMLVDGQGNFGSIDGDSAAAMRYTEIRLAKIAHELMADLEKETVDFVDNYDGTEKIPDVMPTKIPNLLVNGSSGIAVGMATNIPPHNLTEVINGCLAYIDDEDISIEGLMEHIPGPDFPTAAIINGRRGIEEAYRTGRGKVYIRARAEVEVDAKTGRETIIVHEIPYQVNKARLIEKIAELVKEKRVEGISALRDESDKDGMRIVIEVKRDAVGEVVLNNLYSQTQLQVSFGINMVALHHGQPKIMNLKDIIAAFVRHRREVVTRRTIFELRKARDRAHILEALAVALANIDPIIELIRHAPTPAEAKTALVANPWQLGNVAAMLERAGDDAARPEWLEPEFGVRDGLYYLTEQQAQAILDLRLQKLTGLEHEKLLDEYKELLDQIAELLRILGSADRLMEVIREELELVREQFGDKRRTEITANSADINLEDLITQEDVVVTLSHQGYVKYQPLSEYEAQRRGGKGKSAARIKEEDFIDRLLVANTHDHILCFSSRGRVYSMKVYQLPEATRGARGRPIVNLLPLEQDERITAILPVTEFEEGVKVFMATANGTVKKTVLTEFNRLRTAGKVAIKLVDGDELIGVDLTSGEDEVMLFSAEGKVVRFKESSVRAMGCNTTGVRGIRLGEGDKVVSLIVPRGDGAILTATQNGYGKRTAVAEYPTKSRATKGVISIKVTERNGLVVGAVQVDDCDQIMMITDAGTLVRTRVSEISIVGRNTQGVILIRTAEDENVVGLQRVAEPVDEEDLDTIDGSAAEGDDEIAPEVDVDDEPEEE
# [10] = system: Staphylococcus aureus (16 strains); experiment: MIC range, broader panel of Quotient Bioresearch strains (Table 3); conditions: for MIC50: read-out: MIC Range Median, Staphylococcus aureus (16 strains)
# [11] = system: Escherichia coli (6 strains); experiment: MIC range, broader panel of Quotient Bioresearch strains (Table 4); type: cell-based; conditions: for MIC50: read-out: MIC Range Median, Escherichia coli (6 strains)
# [12] = system: Enterococcus faecium (3 strains); experiment: MIC range, broader panel of Quotient Bioresearch strains (Table 3); conditions: for MIC50: read-out: MIC Range Median, Enterococcus faecium (3 strains)
# [13] = system: Enterococcus faecalis (5 strains); experiment: as above; conditions: for MIC50: read-out: MIC Range Median, Enterococcus faecalis (5 strains)
# [14] = system: Group C Streptococcus (4 strains); experiment: as above; conditions: for MIC50: read-out: MIC Range Median, Group C Streptococcus (4 strains)
# [15] = system: Klebsiella pneumonia (4 strains); experiment: MIC range, broader panel of Quotient Bioresearch strains (Table 4); type: cell-based; conditions: Klebsiella pneumoniae; for MIC50: read-out: MIC Range Median, Klebsiella pneumonia (4 strains)
# [16] = read-out: MIC Range High, Acinetobacter baumannii (12 strains)
# [17] = read-out: MIC Range Low, Acinetobacter baumannii (12 strains)
# [18] = read-out: MIC Range Low, Streptococcus pneumonia (5 strains)
# [19] = High of the strain panel, read-out: MIC Range High, Haemophilus influenza (5 strains)
# [20] = Low of the strain panel, read-out: MIC Range Low, Haemophilus influenza (5 strains)
# [21] = read-out: MIC Range High, Pseudomonas aeruginosa (12 strains)
# [22] = read-out: MIC Range Low, Pseudomonas aeruginosa (12 strains)
# [23] = read-out: MIC Range High, Burkholderia cepacia (5 strains)
# [24] = read-out: MIC Range Low, Burkholderia cepacia (5 strains)
# [25] = read-out: MIC Range High, Streptococcus pyogenes (4 strains)
# [26] = read-out: MIC Range Low, Streptococcus pyogenes (4 strains)
# [27] = read-out: MIC Range High, Staphylococcus aureus (16 strains)
# [28] = read-out: MIC Range Low, Staphylococcus aureus (16 strains)
# [29] = read-out: MIC Range High, Escherichia coli (6 strains)
# [30] = read-out: MIC Range Low, Escherichia coli (6 strains)
# [31] = read-out: MIC Range Low, Enterococcus faecium (3 strains)
# [32] = read-out: MIC Range High, Enterococcus faecalis (5 strains)
# [33] = read-out: MIC Range Low, Enterococcus faecalis (5 strains)
# [34] = read-out: MIC Range High, Group C Streptococcus (4 strains)
# [35] = read-out: MIC Range Low, Group C Streptococcus (4 strains)
# [36] = read-out: MIC Range High, Klebsiella pneumonia (4 strains)
# [37] = read-out: MIC Range Low, Klebsiella pneumonia (4 strains)
# [38] = read-out: MIC Range High, Streptococcus pneumonia (5 strains)
# [39] = read-out: MIC Range High, Enterococcus faecium (3 strains)
compound,measurement,setting,value
"Cc1c(-c2ccc(N)c(F)c2)ccn2c(=O)c(C(=O)[O-])cc(C3CC3)c12.[K+] [Example 2 K salt, potassium 8-(4-amino-3-fluoro-phenyl)-1-cyclopropyl-9-methyl-4-oxo-4H-quinolizine-3-carboxylate]",MIC,[1],2 µg/mL
same,MIC,[2]; [16],16 µg/mL
same,MIC,[2]; [17],0.06 µg/mL
same,MIC50,[2],6 µg/mL
same,MIC,[3]; [18],0.06 µg/mL
same,MIC50,[3],0.12 µg/mL
same,MIC50,[4],≤ 0.015 µg/mL
same,MIC,[4]; [19],≤ 0.015 µg/mL
same,MIC,[4]; [20],≤ 0.015 µg/mL
same,MIC,[5]; [21],16 µg/mL
same,MIC,[5]; [22],0.5 µg/mL
same,MIC50,[5],4 µg/mL
same,solubility at 24 h,physchem; fassgf or other biorelevant,171 µM
same,solubility at 24 h,"physchem; pH 7.4, aqueous buffer",28 µM
same,solubility at 24 h,physchem; simulated gastric fluid,21 µM
same,MIC,[6]; [23],0.25 µg/mL
same,MIC,[6]; [24],0.06 µg/mL
same,MIC50,[6],0.12 µg/mL
same,Mean Parent Remaining,"[7]; Liver microsomes + S9, human",95%
same,Mean Parent Remaining,"[7]; Liver microsomes + S9, mouse",58%
same,Mean Parent Remaining,"[7]; Liver microsomes, human",90%
same,Mean Parent Remaining,"[7]; Liver microsomes, mouse",53%
same,IC50,[8],4.43 µM
same,MIC,[9]; [25],0.12 µg/mL
same,MIC,[9]; [26],0.06 µg/mL
same,MIC50,[9],0.09 µg/mL
same,IC50,bacterial gyrase,≤ 1.42 µM
same,MIC,[10]; [27],0.25 µg/mL
same,MIC,[10]; [28],≤ 0.015 µg/mL
same,MIC50,[10],0.06 µg/mL
same,MIC,[11]; [29],16 µg/mL
same,MIC,[11]; [30],≤ 0.015 µg/mL
same,MIC50,[11],16 µg/mL
same,MIC,[12]; [31],0.12 µg/mL
same,MIC50,[12],0.5 µg/mL
same,MIC,[13]; [32],1 µg/mL
same,MIC,[13]; [33],≤ 0.015 µg/mL
same,MIC50,[13],0.03 µg/mL
same,MIC,[14]; [34],0.12 µg/mL
same,MIC,[14]; [35],0.03 µg/mL
same,MIC50,[14],0.06 µg/mL
same,MIC,[15]; [36],16 µg/mL
same,MIC,[15]; [37],0.12 µg/mL
same,MIC50,[15],10 µg/mL
"Cc1c(-c2cc(F)c(N)c(F)c2)ccn2c(=O)c(C(=O)[O-])cc(C3CC3)c12.[K+] [Example 39 K salt, potassium 8-(4-amino-3,5-difluoro-phenyl)-1-cyclopropyl-9-methyl-4-oxo-4H-quinolizine-3-carboxylate]",MIC,[2]; [16],16 µg/mL
same,MIC,[2]; [17],0.06 µg/mL
same,MIC50,[2],4 µg/mL
same,MIC,[3]; [38],0.25 µg/mL
same,MIC,[3]; [18],0.12 µg/mL
same,MIC50,[3],0.12 µg/mL
same,MIC50,[4],≤ 0.015 µg/mL
same,MIC,[4]; [19],≤ 0.015 µg/mL
same,MIC,[4]; [20],≤ 0.015 µg/mL
same,MIC,[5]; [21],16 µg/mL
same,MIC,[5]; [22],0.5 µg/mL
same,MIC50,[5],4 µg/mL
same,MIC,[6]; [23],0.5 µg/mL
same,MIC,[6]; [24],0.06 µg/mL
same,MIC50,[6],0.25 µg/mL
same,MIC,[9]; [25],0.25 µg/mL
same,MIC,[9]; [26],0.06 µg/mL
same,MIC50,[9],0.12 µg/mL
same,MIC,[10]; [27],0.12 µg/mL
same,MIC,[10]; [28],≤ 0.015 µg/mL
same,MIC50,[10],0.06 µg/mL
same,MIC,[11]; [29],16 µg/mL
same,MIC,[11]; [30],≤ 0.015 µg/mL
same,MIC50,[11],12 µg/mL
same,MIC,[12]; [39],1 µg/mL
same,MIC,[12]; [31],0.12 µg/mL
same,MIC50,[12],0.5 µg/mL
same,MIC,[13]; [32],0.5 µg/mL
same,MIC,[13]; [33],≤ 0.015 µg/mL
same,MIC50,[13],0.03 µg/mL
same,MIC,[14]; [34],0.12 µg/mL
same,MIC,[14]; [35],0.03 µg/mL
same,MIC50,[14],0.09 µg/mL
same,MIC,[15]; [36],32 µg/mL
same,MIC,[15]; [37],0.12 µg/mL
same,MIC50,[15],9 µg/mL
"Cc1c(C2=CCNCC2)ccn2c(=O)c(C(=O)O)cc(C3CC3)c12 [Example 42, 1-cyclopropyl-9-methyl-4-oxo-8-(1,2,3,6-tetrahydropyridin-4-yl)-4H-quinolizine-3-carboxylic acid]",MIC,"[2]; High of the strain panel, read-out: MIC Range High, Acinetobacter baumannii (12 strains)",> 32 µg/mL
same,MIC,"[2]; Low of the strain panel, read-out: MIC Range Low, Acinetobacter baumannii (12 strains)",0.25 µg/mL
same,MIC50,[2]; Median of the strain panel,> 32 µg/mL
same,MIC,[3]; [38],8 µg/mL
same,MIC,[3]; [18],4 µg/mL
same,MIC50,[3],4 µg/mL
same,MIC50,[4],0.06 µg/mL
same,MIC,[4]; [19],0.06 µg/mL
same,MIC,[4]; [20],0.03 µg/mL
same,MIC,"[5]; High of the strain panel, read-out: MIC Range High, Pseudomonas aeruginosa (12 strains)",> 32 µg/mL
same,MIC,"[5]; Low of the strain panel, read-out: MIC Range Low, Pseudomonas aeruginosa (12 strains)",1 µg/mL
same,MIC50,[5]; Median of the strain panel,32 µg/mL
same,MIC,[6]; [23],2 µg/mL
same,MIC,[6]; [24],2 µg/mL
same,MIC50,[6],2 µg/mL
same,MIC,[9]; [25],8 µg/mL
same,MIC,[9]; [26],2 µg/mL
same,MIC50,[9],3 µg/mL
same,MIC,[10]; [27],32 µg/mL
same,MIC,[10]; [28],0.5 µg/mL
same,MIC50,[10],16.2 µg/mL
same,MIC,"[11]; High of the strain panel, read-out: MIC Range High, Escherichia coli (6 strains)",> 32 µg/mL
same,MIC,"[11]; Low of the strain panel, read-out: MIC Range Low, Escherichia coli (6 strains)",0.06 µg/mL
same,MIC50,[11]; Median of the strain panel,32 µg/mL
same,MIC,[12]; [39],> 32 µg/mL
same,MIC,[12]; [31],16 µg/mL
same,MIC50,[12],> 32 µg/mL
same,MIC,[13]; [32],32 µg/mL
same,MIC,[13]; [33],4 µg/mL
same,MIC50,[13],4 µg/mL
same,MIC,[14]; [34],4 µg/mL
same,MIC,[14]; [35],2 µg/mL
same,MIC50,[14],2 µg/mL
same,MIC,"[15]; High of the strain panel, read-out: MIC Range High, Klebsiella pneumonia (4 strains)",> 32 µg/mL
same,MIC,"[15]; Low of the strain panel, read-out: MIC Range Low, Klebsiella pneumonia (4 strains)",0.12 µg/mL
same,MIC50,[15]; Median of the strain panel,8 µg/mL
